Read-outs that look alike come from different tables or passages of the source.
Assays:
[1] = tested on: cystinotic human fibroblasts; assay: Cystine depletion assay; format: cell-based; conditions: for Emax: Homo sapiens, Fibroblast, 1 h; for Emax / Cystine Depletion (%): relative to cystine depletion by cysteamine (100%) at a similar concentration
Procedure: The ability of test compounds to deplete cystine from cystinotic human fibroblasts (Coriell) was determined by incubating compounds with cells for 60 min at 37° C., 95% (v/v) air/5% (v/v) CO2 in Minimal Essential Media Eagle. Treated cell samples were subsequently harvested, then homogenized to ensure plasma and lysosomal membrane disruption. Protein was removed by acid precipitation and cystine in the supernatant measured using LC-MS/MS and HILIC chromatography. Protein levels were determined and cystine levels reported as nM per mg/ml protein. Cystine levels after test compound treatment were expressed as a percentage of that of untreated control cells.
Compounds were assayed at a concentration of 50 μM or 100 μM according to the general methods described above.
Cystine depletion levels for the compounds are expressed in Table 4 as a percent relative to the cystine depletion achieved by cysteamine (c.f. cysteamine 100%) at a similar concentration.
Cystine depletion levels for each of the compounds in Table 5 are expressed as a percent relative to the cystine depletion achieved by cysteamine (c.f. cysteamine 100%) at a similar concentration.

Cystine reactivity assay = conditions: 30° C., percentage of 3 mM cysteamine
Procedure: Cystine reactivity was assessed by incubating 3 mM test compound with 100 nM BODIPY® FL L-Cystine (Life Tech.) at 30° C., pH 7.4 in phosphate buffer. […] Compound cystine reactivity was expressed as a percentage of that of 3 mM cysteamine.
Under resting conditions, the inherent fluorescence of BODIPY® FL L-cystine was very low due to the spatial proximity of the two BODIPY molecules causing quenching. Under chemical reaction (disruption of the S—S bond), the spatial distance was increased, the quenching lost, and measured fluorescence increased. Time (minutes) vs. fluorescence (relative fluorescence units—RFU) was plotted and linear regression analysis was performed to generate a slope value corresponding to the reaction rate in RFU/min and an R2 value.

human recombinant ADO = target: T1, human recombinant ADO (Homo sapiens, UniProt Q96SZ5); format: in vitro ADME
T1 sequence (Q96SZ5 1-270): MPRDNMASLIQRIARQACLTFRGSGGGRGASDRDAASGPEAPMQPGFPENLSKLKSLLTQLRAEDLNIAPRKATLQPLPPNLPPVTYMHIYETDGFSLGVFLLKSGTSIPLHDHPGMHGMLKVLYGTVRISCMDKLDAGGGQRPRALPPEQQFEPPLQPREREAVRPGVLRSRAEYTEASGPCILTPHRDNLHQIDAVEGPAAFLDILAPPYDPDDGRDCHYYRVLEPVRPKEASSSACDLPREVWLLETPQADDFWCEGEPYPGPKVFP
Procedure: The rate of ADO metabolism was determined by incubating 15 mM test compound with 60 μg/ml human recombinant ADO and 20 nM MitoXpress® O2-sensitive fluorescent probe (Luxcel) at 37° C. in assay buffer/salt in a sealed assay chamber. The initial rate of fluorescence (excitation λ380 nm and emission λ650 nm) increase was used to measure ADO-dependent oxygen depletion activity. The ability of ADO to metabolize compounds and concomitantly consume oxygen was expressed relative to that of 15 mM cysteamine.

St-HdhQ^111/111 cells = assay: Glutamate-induced neuronal excitotoxicity assay; format: cell-based; conditions: STHdhQ111, 6 mM L-glutamate 24 hours, % of effect of 100 μM cysteamine; for viability at 10 µM: read-out: HdhQ^111/111 cell % survival (mean ± STD) Test Conc. 10 μM; for viability at 100 µM: read-out: HdhQ^111/111 cell % survival (mean ± STD) Test Conc. 100 μM
Procedure: The ability of test compounds to inhibit glutamate-induced excitotoxicity (neuroprotection) in St-HdhQ^111/111 cells was determined by incubating compounds with cells for 60 min at 33° C., 95% (v:v) air/5% (v:v) CO2 in Dulbecco's Modified Eagle Media. Following this, excitotoxicity was induced by the addition of 6 mM L-glutamate for 24 hours. Cell viability was assessed by measuring ATP levels using a luminescent-based CellTitre Glo assay (Promega). Compound neuroprotection (% cell survival) was expressed as a % of the effect recorded with 100 μM cysteamine (denoted as 100% cell survival).

[2] = Table 5, read-out: Cystine Depletion (%) Mean Value
[3] = Table 4, read-out: Cystine Depletion (%)

SMILES: CC1(SSC2(C)CCNCC2)CCNCC1 [Compound 151272]
- Emax [1, 2]: 11%

SMILES: SCC1CCN1 (stereo not drawn) [Compound 42212]
- Cystine Reactivity Assay (30° C.) (%) Mean Value (Cystine reactivity assay; Table 4): <50%

SMILES: CNCCS [Compound 18781]
- Cystine Depletion (%) ([1]; Table 4): 92%

SMILES: CC1(S)CC(N)C1 (stereo not drawn) [Compound 152071]
- Emax [1, 2]: 70%

SMILES: CN1CC[C@H](SS[C@H]2CCN(C)C2)C1 [Compound 42343]
- Emax [1, 3]: 84%

SMILES: O=c1[nH][se]c2ccccc12 [Compound 145565]
- Emax [1, 2]: 31%

SMILES: N[C@H]1CC[C@@H](S)CC1 [Compound 42491]
- Cystine Reactivity Assay (30° C.) (%) Mean Value (Cystine reactivity assay; Table 4): <50%
- ADO Metabolism Assay (%) Mean Value (human recombinant ADO; human, 15 mM): <25%

SMILES: N[C@H]1C[C@H](S)C1 [Compound 142460]
- Cystine Reactivity Assay (30° C.) (%) Mean Value (Cystine reactivity assay; Table 5): 50-90%
- Emax [1, 2]: 78%

SMILES: FC1(F)CN[C@H](CS)C1 [Compound 149611]
- Cystine Reactivity Assay (30° C.) (%) Mean Value (Cystine reactivity assay; Table 5): >90%
- viability at 10 µM (St-HdhQ^111/111 cells): 35 ± 13%
- viability at 100 µM (St-HdhQ^111/111 cells): 102 ± 13%
- Emax [1, 2]: 27%

SMILES: NC1(CS)CC1 [Compound 3d]
- metabolism by ADO compared to cysteamine (in words) (human recombinant ADO): significantly reduced metabolism by ADO compared to cysteamine
- ADO metabolism (human recombinant ADO; human, 15 mM): 14%
- cystine depletion levels (in words) ([1]; compared to cysteamine): slightly decreased
- Cystine depletion ([1]; compound at 50 μM or 100 μM, Tables 1-3): 55%

SMILES: SCc1ccccn1 [Compound 42213]
- Cystine Reactivity Assay (30° C.) (%) Mean Value (Cystine reactivity assay; Table 4): >90%
- ADO Metabolism Assay (%) Mean Value (human recombinant ADO; human, 15 mM): >75%
- Emax [1, 3]: 0%

SMILES: CN1CC(SSC2CN(C)C2)C1 [Compound 42151]
- Emax [1, 3]: 133%

SMILES: N[C@@H]1CCCC[C@@H]1S [Compound 42610]
- Cystine Reactivity Assay (30° C.) (%) Mean Value (Cystine reactivity assay; Table 4): >90%
- viability at 10 µM (St-HdhQ^111/111 cells): 19 ± 6%
- viability at 100 µM (St-HdhQ^111/111 cells): 77 ± 8%
- Emax [1, 3]: 91%

SMILES: CC(=O)SC1CCNCC1 [Compound 145692]
- Emax [1, 2]: 75%

SMILES: CC(C)(C)N1CCC(S)CC1 [Compound 145584]
- Cystine Reactivity Assay (30° C.) (%) Mean Value (Cystine reactivity assay; Table 5): >90%
- ADO Metabolism Assay (%) Mean Value (human recombinant ADO; human, 15 mM): <25%
- Emax [1, 2]: 0%

SMILES: O=S(=O)([O-])CCS.[Na+] [Compound 145566]
- Cystine Reactivity Assay (30° C.) (%) Mean Value (Cystine reactivity assay; Table 5): <50%
- ADO Metabolism Assay (%) Mean Value (human recombinant ADO; Table 5, relative to 15 mM cysteamine): <25%
- Emax [1, 2]: 16%

SMILES: CC(C)N1CCC(S)CC1 [Compound 42458]
- Cystine Reactivity Assay (30° C.) (%) Mean Value (Cystine reactivity assay; Table 4): >90%
- Emax [1, 3]: 91%

SMILES: SC1CC2(CNC2)C1 [Compound 42611]
- Cystine Reactivity Assay (30° C.) (%) Mean Value (Cystine reactivity assay; Table 4): >90%
- ADO Metabolism Assay (%) Mean Value (human recombinant ADO; human, 15 mM): <25%
- Emax [1, 3]: 55%

SMILES: CN1CC[C@@H](SS[C@H]2CCN(C)C2)C1 [Compound 42342]
- Emax [1, 3]: 91%

SMILES: CC(C)(N)CS [Compound 42097]
- Emax [1, 3]: 97%

SMILES: C[C@@]1(S)CCCNC1 [Compound 151182]
- Cystine Reactivity Assay (30° C.) (%) Mean Value (Cystine reactivity assay; Table 5): 59-90%
- viability at 10 µM (St-HdhQ^111/111 cells): 1 ± 5%
- viability at 100 µM (St-HdhQ^111/111 cells): 85 ± 11%
- Emax [1, 2]: 59%

SMILES: C[C@@H](N)CS (single isomer, unassigned) [Compound 42099]
- Cystine Depletion (%) ([1]; Table 4): 79%

SMILES: C[C@]1(S)CCCNC1 [Compound 151181]
- Cystine Reactivity Assay (30° C.) (%) Mean Value (Cystine reactivity assay; Table 5): 50-90%
- viability at 10 µM (St-HdhQ^111/111 cells): 3 ± 8%
- viability at 100 µM (St-HdhQ^111/111 cells): 90 ± 9%
- Emax [1, 2]: 69%

SMILES: SCC1CNC1 [Compound 145585]
- Cystine Reactivity Assay (30° C.) (%) Mean Value (Cystine reactivity assay; Table 5): >90%
- viability at 10 µM (St-HdhQ^111/111 cells): 13 ± 10%
- viability at 100 µM (St-HdhQ^111/111 cells): 100 ± 9%
- Emax [1, 2]: 11%

SMILES: FC1(F)CCNC[C@@H]1S [Compound 42694]
- Cystine Reactivity Assay (30° C.) (%) Mean Value (Cystine reactivity assay; Table 4): <50%
- Emax [1, 3]: 20%

SMILES: NCCCNCCS [Compound 145564]
- Cystine Reactivity Assay (30° C.) (%) Mean Value (Cystine reactivity assay; Table 5): >90%
- ADO Metabolism Assay (%) Mean Value (human recombinant ADO; human, 15 mM): 25-75%
- Emax [1, 2]: 36%

SMILES: C[N+]1(C)CCC(S)CC1
- viability at 10 µM (St-HdhQ^111/111 cells): 1 ± 6%
- viability at 100 µM (St-HdhQ^111/111 cells): 16 ± 7%
